Results as given in US20250360235A1, “RADI[…] AND METHOD FOR RADIOLABELLING” (Telix Innovations SA, priority 2024, published 2025).

Experiment: Radiochemical purity by iTLC over time after radiolabelling
Format: physicochemical
Procedure: Table 1 to Table 5 show the results of various radiolabelling experiments on radiochemical purity and the chelation yield. The radiolabelling experiments in the tables are carried out as described in: • Example 1 for when the gallium-68 source is GE Liquid target generator and EZAG GalliaPharm generator; • Example 2 for when the gallium-68 source is IRE Galli Eo generator; • Example 3 for when the gallium-68 source is GE solid target generator;
However, the experiments were carried out with the amount of ascorbic acid as indicated in the Tables 1 to 5, and the activity as indicated in the Tables 1 to 5. Radiochemical purities were measured at various times (T0, T1, T4, T6) after the radiolabelled experiments have been conducted.
The kits of Example 1, Example 2 or Example 3, with amounts of ascorbic acid as set out in Table 7 were used in the experiments for the ascorbic acid bracketing matrix. Three strengths of [^68Ga]Ga-PSMA-11 will be tested, i.e. 50 mCi/ml, 7 mCi/ml and 1 mCi/ml. Radiochemical purity was determined at different time points (TO, T1, T4 or T6), as set out in Table 7.

[1] = validation batches, 25 mg ascorbic acid, 51.6-62.7 mCi, 4.56-5.88 mCi/mL, IRE Galli Eo, average of 3, T0
[2] = validation batches, 25 mg ascorbic acid, 51.6-62.7 mCi, 4.56-5.88 mCi/mL, IRE Galli Eo, average of 3, T4 (4 h)
[3] = validation batches, 25 mg ascorbic acid, 51.6-62.7 mCi, 4.56-5.88 mCi/mL, IRE Galli Eo, n=3, T0
[4] = validation batches, 25 mg ascorbic acid, 51.6-62.7 mCi, 4.56-5.88 mCi/mL, IRE Galli Eo, n=3, T4 (4 h)
[5] = validation batches, 25 mg ascorbic acid, 53.3-74.4 mCi, 5.03-6.92 mCi/mL, GE Liquid target, average of 3, T0
[6] = validation batches, 25 mg ascorbic acid, 53.3-74.4 mCi, 5.03-6.92 mCi/mL, GE Liquid target, average of 3, T4 (4 h)
[7] = validation batches, 25 mg ascorbic acid, 53.3-74.4 mCi, 5.03-6.92 mCi/mL, GE Liquid target, n=3, T0
[8] = validation batches, 25 mg ascorbic acid, 53.3-74.4 mCi, 5.03-6.92 mCi/mL, GE Liquid target, n=3, T4 (4 h)
[9] = validation batches, 25 mg ascorbic acid, 65.0-66.4 mCi, 5.74-6.15 mCi/mL, EZAG GalliaPharm, average of 3, T0
[10] = validation batches, 25 mg ascorbic acid, 65.0-66.4 mCi, 5.74-6.15 mCi/mL, EZAG GalliaPharm, average of 3, T4 (4 h)
[11] = validation batches, 25 mg ascorbic acid, 65.0-66.4 mCi, 5.74-6.15 mCi/mL, EZAG GalliaPharm, n=3, T0
[12] = validation batches, 25 mg ascorbic acid, 65.0-66.4 mCi, 5.74-6.15 mCi/mL, EZAG GalliaPharm, n=3, T4 (4 h)
[13] = validation batches, 25 mg ascorbic acid, 537-551 mCi, 50.2-51.6 mCi/mL, GE Solid Target, average of 3, T0
[14] = validation batches, 25 mg ascorbic acid, 537-551 mCi, 50.2-51.6 mCi/mL, GE Solid Target, average of 3, T6 (6 h)
[15] = validation batches, 25 mg ascorbic acid, 537-551 mCi, 50.2-51.6 mCi/mL, GE Solid Target, n=3, T0
[16] = validation batches, 25 mg ascorbic acid, 537-551 mCi, 50.2-51.6 mCi/mL, GE Solid Target, n=3, T6 (6 h)
[17] = validation batches, 25 mg ascorbic acid, 555-564 mCi, 51.1-52.7 mCi/mL, ARTMS Solid Target, average of 3, T0
[18] = validation batches, 25 mg ascorbic acid, 555-564 mCi, 51.1-52.7 mCi/mL, ARTMS Solid Target, average of 3, T6 (6 h)
[19] = validation batches, 25 mg ascorbic acid, 555-564 mCi, 51.1-52.7 mCi/mL, ARTMS Solid Target, n=3, T0
[20] = validation batches, 25 mg ascorbic acid, 555-564 mCi, 51.1-52.7 mCi/mL, ARTMS Solid Target, n=3, T6 (6 h)

## O=C([O-])CN(CCN(CC(=O)[O-])Cc1cc(CCC(=O)NCCCCCC(=O)NCCCC[C@H](NC(=O)N[C@@H](CCC(=O)O)C(=O)O)C(=O)O)ccc1[O-])Cc1cc(CCC(=O)O)ccc1[O-].[68Ga+3].[OH3+] [[^68Ga]PSMA-11, gallium-68 radiolabelled Glu-urea-Lys-HBED-CC (gozetotide or PSMA-11)]
Bracketing ~50 mCi/mL, 31.25 mg ascorbic acid, 500-544 mCi, 48.1-51.7 mCi/mL, GE Solid Target, average of 2, T6 (6 h)
  Radiochemical Purity (iTLC) Ga-68 PSMA-11 (%): 99%
[1]
  Radiochemical Purity (iTLC) Free and Colloidal Ga-68 (%): 0%
  Radiochemical Purity (iTLC) Ga-68 PSMA-11 (%): 100%
[2]
  Radiochemical Purity (iTLC) Free and Colloidal Ga-68 (%): 1%
  Radiochemical Purity (iTLC) Ga-68 PSMA-11 (%): 99%
[3]
  Radiochemical Purity (iTLC) Free and Colloidal Ga-68 (%): C (C = all results conform to specifications)
  Radiochemical Purity (iTLC) Ga-68 PSMA-11 (%): C (C = all results conform to specifications)
[4]
  Radiochemical Purity (iTLC) Free and Colloidal Ga-68 (%): C (C = all results conform to specifications)
  Radiochemical Purity (iTLC) Ga-68 PSMA-11 (%): C (C = all results conform to specifications)
[5]
  Radiochemical Purity (iTLC) Free and Colloidal Ga-68 (%): 1%
  Radiochemical Purity (iTLC) Ga-68 PSMA-11 (%): 99%
[6]
  Radiochemical Purity (iTLC) Free and Colloidal Ga-68 (%): 0%
  Radiochemical Purity (iTLC) Ga-68 PSMA-11 (%): 100%
[7]
  Radiochemical Purity (iTLC) Free and Colloidal Ga-68 (%): C (C = all results conform to specifications)
  Radiochemical Purity (iTLC) Ga-68 PSMA-11 (%): C (C = all results conform to specifications)
[8]
  Radiochemical Purity (iTLC) Free and Colloidal Ga-68 (%): C (C = all results conform to specifications)
  Radiochemical Purity (iTLC) Ga-68 PSMA-11 (%): C (C = all results conform to specifications)
[9]
  Radiochemical Purity (iTLC) Free and Colloidal Ga-68 (%): 0%
  Radiochemical Purity (iTLC) Ga-68 PSMA-11 (%): 100%
[10]
  Radiochemical Purity (iTLC) Free and Colloidal Ga-68 (%): 2%
  Radiochemical Purity (iTLC) Ga-68 PSMA-11 (%): 98%
[11]
  Radiochemical Purity (iTLC) Free and Colloidal Ga-68 (%): C (C = all results conform to specifications)
  Radiochemical Purity (iTLC) Ga-68 PSMA-11 (%): C (C = all results conform to specifications)
[12]
  Radiochemical Purity (iTLC) Free and Colloidal Ga-68 (%): C (C = all results conform to specifications)
  Radiochemical Purity (iTLC) Ga-68 PSMA-11 (%): C (C = all results conform to specifications)
[13]
  Radiochemical Purity (iTLC) Free and Colloidal Ga-68: 0%
  Radiochemical Purity (iTLC) Ga-68 PSMA-11: 100%
[14]
  Radiochemical Purity (iTLC) Free and Colloidal Ga-68: 1%
  Radiochemical Purity (iTLC) Ga-68 PSMA-11: 99%
[15]
  Radiochemical Purity (iTLC) Free and Colloidal Ga-68: C (C = all results conform to specifications)
  Radiochemical Purity (iTLC) Ga-68 PSMA-11: C (C = all results conform to specifications)
[16]
  Radiochemical Purity (iTLC) Free and Colloidal Ga-68: C (C = all results conform to specifications)
  Radiochemical Purity (iTLC) Ga-68 PSMA-11: C (C = all results conform to specifications)
[17]
  Radiochemical Purity (iTLC) Free and Colloidal Ga-68: 1%
  Radiochemical Purity (iTLC) Ga-68 PSMA-11: 99%
[18]
  Radiochemical Purity (iTLC) Free and Colloidal Ga-68: 0%
  Radiochemical Purity (iTLC) Ga-68 PSMA-11: 100%
[19]
  Radiochemical Purity (iTLC) Free and Colloidal Ga-68: C (C = all results conform to specifications)
  Radiochemical Purity (iTLC) Ga-68 PSMA-11: C (C = all results conform to specifications)
[20]
  Radiochemical Purity (iTLC) Free and Colloidal Ga-68: C (C = all results conform to specifications)
  Radiochemical Purity (iTLC) Ga-68 PSMA-11: C (C = all results conform to specifications)
